What was measured:
[1] = organism: Mus musculus; assay: Effective concentration required for in Vitro evaluation of agonist activity on mouse vas deferens preparation; assay type: functional
[2] = organism: Mus musculus; assay: In Vitro evaluation of antagonist activity induced by naloxone on mouse vas deferens preparation; assay type: functional
[3] = organism: Cavia porcellus; assay: Effective concentration of compound required for in vitro agonist potency in guinea-pig ileum myenteric plexus preparation (GPI); assay type: functional
[4] = organism: Cavia porcellus; assay: In vitro evaluation of antagonistic activity induced by naloxone in guinea-pig ileum myenteric plexus preparation (GPI); assay type: functional
[5] = target: Kappa-type opioid receptor (Cavia porcellus, UniProt P41144); assay: Binding affinity by its ability to displace [3H]-U-69,593 from kappa receptor in homogenates of guinea pig brain; assay type: tissue-based
Chain of Kappa-type opioid receptor (P41144 whole entry): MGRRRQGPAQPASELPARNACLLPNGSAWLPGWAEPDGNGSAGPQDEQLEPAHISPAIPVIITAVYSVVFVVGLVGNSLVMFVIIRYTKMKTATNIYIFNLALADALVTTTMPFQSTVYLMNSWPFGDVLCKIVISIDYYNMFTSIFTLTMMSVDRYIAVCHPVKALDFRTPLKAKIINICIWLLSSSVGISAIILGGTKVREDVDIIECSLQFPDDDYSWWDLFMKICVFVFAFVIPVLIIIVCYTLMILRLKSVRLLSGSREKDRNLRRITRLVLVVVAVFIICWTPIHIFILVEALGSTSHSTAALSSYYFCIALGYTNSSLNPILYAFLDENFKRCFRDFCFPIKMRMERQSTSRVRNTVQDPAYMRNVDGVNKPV

[6] = organism: Mus musculus; assay: Effective concentration of compound required for in vitro agonist activity on mouse vas deferens preparation; assay type: functional
[7] = organism: Mus musculus; assay: In vitro evaluation of antagonist activity induced by naloxone on mouse vas deferens preparation; assay type: functional
[8] = target: Mu-type opioid receptor (Cavia porcellus, UniProt P97266); assay: Binding affinity by its ability to displace [3H]DAMGO from mu receptor in homogenates of guinea pig brain; assay type: tissue-based
Chain of Mu-type opioid receptor (P97266 whole entry): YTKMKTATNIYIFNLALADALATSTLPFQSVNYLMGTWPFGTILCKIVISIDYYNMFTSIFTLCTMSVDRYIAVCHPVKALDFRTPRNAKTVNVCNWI

[9] = system: Rattus norvegicus; assay: Effective dose required for in vivo antinociceptive effect in rat when administered subcutaneously; assay type: functional; settings: sc
[10] = organism: Cavia porcellus; assay: Effective concentration required for in vitro agonist potency in guinea-pig ileum myenteric plexus preparation (GPI); assay type: functional
[11] = organism: Mus musculus; assay: Effective concentration required for in vitro evaluation of agonist activity on mouse vas deferens preparation; assay type: functional

Row | SMILES | Ke [4] [nM] | Ki [5] [nM] | Ke [7] [nM] | Ki [8] [nM] | ED50 [9] [mg/kg] | other results
1 | CC1(C)SSC(C)(C)[C@@H](NC(=O)[C@@H](N)Cc2ccc(O)cc2)C(=O)NCC(=O)N[C@@H](Cc2ccccc2)C(=O)N[C@H]1C(=O)O |  |  |  |  |  | EC50 [1]: 2.8 nM; Ke [2]: 20.4 nM
2 | Br.COc1cccc2c1[C@]13CCN(CCc4ccccc4)C(C2)[C@]1(OC)CCC(=O)C3 | 0.54 | 690 | 1.67 | 0.9 | 0.037 | EC50 [3]: 17.4 nM; EC50 [6]: 11.8 nM
3 | COc1cccc2c1[C@]13CCN(C)[C@H](C2)[C@]1(OC)CCC(=O)C3 |  | 1.5 |  | 0.7 | 0.021 | 
4 | COc1cccc2c1[C@]13CCN(CC4CC4)[C@H](C2)[C@]1(OC)CCC(=O)C3 [CYPRODIME BROMIDE] |  | 61.1 |  |  |  | 
5 | C[C@@H](NC(=O)[C@@H](N)Cc1ccc(O)cc1)C(=O)NCC(=O)N(C)[C@@H](Cc1ccccc1)C(=O)NCCO [DAMGO] | 1.6 |  | 1.9 |  |  | EC50 [10]: 11.8 nM; EC50 [11]: 24.7 nM
6 | CN1CC[C@]23c4c5ccc(O)c4O[C@H]2[C@@H](O)C=C[C@H]3[C@H]1C5.Cl [MORPHINE HYDROCHLORIDE] |  |  |  |  | 1.8 | 

From ChEMBL document CHEMBL1128801, “Synthesis and biological evaluation of 14-alkoxymorphinans.12.1 A phenethyl analogue of the -selective opioid receptor antagonist cyprodime” (Bioorg Med Chem Lett, 1995)
